Assay results as given in ChEMBL document CHEMBL5223073, “Andrographolide suppresses cisplatin-induced endothelial hyperpermeability through activation of PI3K/Akt and eNOS -derived nitric oxide” (Bioorg Med Chem, 2020).
Calls of active or inactive are those of the source. No cut-off for these calls is given here.

How the values were obtained:
HUVEC [1] = assay: Cytotoxicity against HUVEC cells assessed as reduction in cell viability at <=30 uM measured after 24 hrs by MTT assay; type: toxicity, cell-based; details: human
HUVEC [2] = assay: Inhibition of cisplatin-induced ICAM-1 mRNA expression in HUVEC cells preincubated for 30 mins followed by cisplatin addition and measured after 24 hrs by RT-PCR analysis; type: functional, cell-based; details: Homo sapiens, dose 10-30 µM, time 24.5 hrs
HUVEC [3] = assay: Inhibition of cisplatin-induced ICAM-1 protein expression in HUVEC cells preincubated for 30 mins followed by cisplatin addition and measured after 24 hrs by Western blot analysis; type: functional, cell-based; details: Homo sapiens, dose 10-30 µM, time 24.5 hrs
HUVEC [4] = assay: Induction of NO production in cisplatin-treated HUVEC cells assessed as increase in fluorescence signal at 30 uM measured after 4 to 15 mins by DAF-FM dye based analysis; type: functional, cell-based; details: Homo sapiens, time 4-15 min
HUVEC [5] = assay: Induction of NO production in cisplatin-treated HUVEC cells assessed as increase in fluorescence signal at 30 uM preincubated with eNOS inhibitor, N(G)-nitro-L-arginine methyl ester for 3 hrs followed by compound addition and measured immediately by DAF-FM dye based analysis; type: functional, cell-based; details: Homo sapiens
[6] = biological target: T1, Nitric oxide synthase 3 (Homo sapiens) (UniProt P29474); assay: Activation of eNOS activity in cisplatin-treated HUVEC cells assessed as increase in eNOS phosphorylation at Ser1177 residue at 30 uM preincubated with eNOS inhibitor, N(G)-nitro-L-arginine methyl ester followed by compound addition measured after 5 to 240 mins by Western blot analysis; type: cell-based; details: time 5-240 min
T1 sequence (whole entry): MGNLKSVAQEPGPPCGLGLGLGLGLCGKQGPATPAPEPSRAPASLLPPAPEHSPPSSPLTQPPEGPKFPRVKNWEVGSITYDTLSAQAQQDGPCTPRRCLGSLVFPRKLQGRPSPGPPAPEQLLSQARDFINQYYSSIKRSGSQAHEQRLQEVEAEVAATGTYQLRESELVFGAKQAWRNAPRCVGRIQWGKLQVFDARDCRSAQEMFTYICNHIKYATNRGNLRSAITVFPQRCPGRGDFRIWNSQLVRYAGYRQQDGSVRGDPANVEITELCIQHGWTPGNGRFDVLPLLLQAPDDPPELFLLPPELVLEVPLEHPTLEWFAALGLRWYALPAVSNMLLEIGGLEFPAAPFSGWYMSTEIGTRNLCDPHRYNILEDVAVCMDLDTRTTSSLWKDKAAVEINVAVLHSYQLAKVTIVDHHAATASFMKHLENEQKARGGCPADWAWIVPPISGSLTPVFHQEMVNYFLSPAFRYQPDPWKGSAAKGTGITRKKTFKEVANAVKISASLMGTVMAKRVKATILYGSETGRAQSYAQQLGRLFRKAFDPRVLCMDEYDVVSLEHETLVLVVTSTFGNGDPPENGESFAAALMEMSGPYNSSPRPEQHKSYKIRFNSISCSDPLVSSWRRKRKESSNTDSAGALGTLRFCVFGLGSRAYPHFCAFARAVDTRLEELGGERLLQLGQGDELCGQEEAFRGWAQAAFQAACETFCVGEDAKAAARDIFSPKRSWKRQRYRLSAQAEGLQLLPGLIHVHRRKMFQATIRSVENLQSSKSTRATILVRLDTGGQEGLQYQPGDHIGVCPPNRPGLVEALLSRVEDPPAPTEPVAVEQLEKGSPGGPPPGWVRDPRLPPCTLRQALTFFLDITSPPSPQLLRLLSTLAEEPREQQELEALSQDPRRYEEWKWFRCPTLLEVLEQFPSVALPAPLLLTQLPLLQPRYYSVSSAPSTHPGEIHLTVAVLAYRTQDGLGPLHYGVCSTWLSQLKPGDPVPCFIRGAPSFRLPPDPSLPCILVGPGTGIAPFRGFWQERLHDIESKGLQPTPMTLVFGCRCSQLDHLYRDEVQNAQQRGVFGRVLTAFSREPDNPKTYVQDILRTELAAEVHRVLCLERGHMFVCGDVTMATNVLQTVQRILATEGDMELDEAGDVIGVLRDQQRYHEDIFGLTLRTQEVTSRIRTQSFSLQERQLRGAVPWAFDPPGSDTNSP

HUVEC [7] = assay: Activation of PI3K in cisplatin-treated HUVEC cells assessed as increase PIP3 formation pretreated for 30 mins followed by cisplatin addition by immunoprecipitation analysis; type: cell-based; details: Homo sapiens, filed as activator, dose 10-30 µM
HUVEC [8] = assay: Activation of AKT in cisplatin-treated HUVEC cells assessed as increase in AKT phosphorylation at 30 uM pretreated with PI3K inhibitor, wortmannin followed by compound addition and measured after 240 mins by Western blot analysis; type: cell-based; details: Homo sapiens
HUVEC [9] = assay: Upregulation of cytosolic p65 level in cisplatin-treated HUVEC cells at 30 uM preincubated with PI3K inhibitor, wortmannin followed by compound addition and further incubated for 1 hr by Western blot analysis; type: functional, cell-based; details: Homo sapiens
HUVEC [10] = assay: Inhibition of cisplatin-induced PKCalpha translocation in HUVEC cells assessed as increase in PKCalpha accumulation in cytosol at 30 uM incubated for 15 mins in presence of cisplatin by Western blot analysis; type: functional, subcellular; details: Homo sapiens
HUVEC [11] = assay: Downregulation of cisplatin-induced PKCalpha translocation in HUVEC cells at 30 uM incubated for 15 mins in presence of cisplatin and PI3K inhibitor, wortmannin by Western blot analysis; type: functional, cell-based; details: Homo sapiens
HUVEC [12] = assay: Downregulation of cisplatin-induced PKCalpha translocation in HUVEC cells at 30 uM incubated for 15 mins in presence of cisplatin and eNOS inhibitor, N(G)-nitro-L-arginine methyl ester by Western blot analysis; type: functional, cell-based; details: Homo sapiens
HUVEC [13] = assay: Inhibition of cisplatin-induced store operated Ca2+ release in HUVEC cells at 30 uM preincubated with compound followed by cisplatin stimulation by Fura-2 AM staining based calcium influx assay; type: functional, cell-based; details: Homo sapiens
HUVEC [14] = assay: Inhibition of cisplatin-induced store operated Ca2+ release in HUVEC cells at 30 uM preincubated with compound in presence of eNOS inhibitor, N(G)-nitro-L-arginine methyl ester followed by cisplatin stimulation by Fura-2 AM staining based calcium influx assay; type: functional, cell-based; details: Homo sapiens
HUVEC [15] = assay: (§1) Improvement in cisplatin-induced endothelial monolayer integrity in HUVEC cells assessed as increase in transendothelial electric resistance at 30 uM preincubated with compound followed by cisplatin stimulation and measured after 45 mins; type: functional, cell-based; details: Homo sapiens
HUVEC [16] = assay: as §1, with “compound in presence of eNOS inhibitor, N(G)-nitro-L-arginine methyl ester” for “compound”; type: functional, cell-based; details: Homo sapiens
HUVEC [17] = assay: Improvement in cisplatin-induced endothelial monolayer integrity in HUVEC cells assessed as reduction in transmembrane movement of albumin at 30 uM preincubated with compound in presence of eNOS inhibitor, N(G)-nitro-L-arginine methyl ester followed by cisplatin stimulation and measured after 2 hrs; type: functional, cell-based; details: Homo sapiens
U-937 = assay: Inhibition of cisplatin-induced ICAM1 dependent HUVEC cells adhesion to human U-937 cells at 10 to 30 uM preincubated with HUVEC cells for 4.5 hrs in presence of cisplatin followed by U-937 cell suspension addition and measured after 1 hr by BCECF fluorescent probe based assay; type: functional; details: dose 10-30 µM, time 5.5 hrs

Activity [6]: inactive
Compound: C=C1CC[C@@H]2[C@](C)(CO)[C@H](O)CC[C@@]2(C)[C@@H]1C/C=C1/C(=O)OC[C@H]1O [ANDROGRAPHOLIDE]
Activity (HUVEC [1]): Non-Toxic
inhibition (HUVEC [2]): Dose-Dependent Effect
inhibition (HUVEC [3]): Dose-Dependent Effect
Activity (HUVEC [4]): Active
Activity (HUVEC [5]): inactive
Activity (HUVEC [7]): Dose-Dependent Effect
Activity (HUVEC [8]): inactive
Activity (HUVEC [9]): inactive
inhibition (HUVEC [10]): Active
Activity (HUVEC [11]): inactive
Activity (HUVEC [12]): inactive
inhibition (HUVEC [13]): Active
inhibition (HUVEC [14]): inactive
Activity (HUVEC [15]): Active
Activity (HUVEC [16]): inactive
Activity (HUVEC [17]): inactive
inhibition (U-937): Active
